According to US20200277571A1, “METHOD FOR AMPLIFYING CONE PHOTORECEPTORS OR ROD PHOTORECEPTORS USING DORSALIZATION SIGNAL TRANSMITTER OR VENTRALIZATION SIGNAL TRANSMITTER” (RIKEN, priority 2017, published 2020):

Columns and labels:
ALDH1A3 gene = test: Quantitative PCR of ALDH1A3 gene expression in retinal tissue; assay type: cell-based, human; settings: about day 70-75, 0.15 nM BMP4, 100 nM LDN193189, 100 nM SAG from day 22
Experimental: (§1) [1] Control group (FIG. 2a, f, k, p); according to the method described in Example 1, culture was performed up to day 70 or day 75 from the start of suspension culture and without addition. [2]+BMP group (FIG. 2b, g, 1, q); 0.15 nM BMP4 was added from day 22 from the start of suspension culture to completion of suspension culture, and cultured up to day 70 or day 75 from the start of suspension culture. [3]+Cyclopamine-KAAD group (FIG. 2c, h, m, r); 500 nM Cyclopamine-KAAD was added from day 22 from the start of suspension culture to completion of the suspension culture, and cultured up to day 70 or day 75 from the start of suspension culture. [4]+LDN193189 group (FIG. 2d, i, n, s); 100 nM LDN193189 was added from day 22 from the start of suspension culture to completion of the suspension culture, and cultured up to day 70 or day 75 from the start of suspension culture. [5]+SAG group (FIG. 2e, j, o, t); 100 nM SAG was added from day 22 from the start of suspension culture to completion of the suspension culture, and cultured up to day 70 or day 75 from the start of suspension culture.
RNA was extracted from retinal tissue on about day 70-75 from the start of suspension culture and prepared under the same conditions, cDNA was synthesized, and the ALDH1A3 gene expression level was analyzed by quantitative PCR. As a result, the expression level of the ALDH1A3 gene was suppressed in +BMP4 group as compared to the Control (NUC) group, and the expression was promoted in +LDN193189 group, +SAG group (FIG. 7, white bar (d70) in graph), as similarly observed by immunostaining. In addition, RNA was extracted from retinal tissue on about day 40-44 from the start of suspension culture and cultured under the same conditions except the culture period, cDNA was synthesized, and the ALDH1A3 gene expression level was analyzed by quantitative PCR. As a result, the expression level scarcely changed on about day 40 from the start of suspension culture as compared to on about day 70 from the start of suspension culture and difference was not found (FIG. 7, black bar (d40) in graph).

[1] = system: OTX2-positive and OC2-positive cells in retinal tissue produced from human ES cells; test: Immunostaining for OTX2 and OC2 of retinal tissue, day 70-75, image analysis (Image J); assay type: cell-based; settings: for number of OTX2-positive cells versus Control (NUC) group / OC2-positive cells: 0.15 nM BMP4, 500 nM Cyclopamine-KAAD; for number of OTX2-positive cells versus Control (NUC) group: 100 nM LDN193189, 100 nM SAG from day 22; for OC2-positive cells: 100 nM LDN193189 or 100 nM SAG from day 22, Control (NUC) about 26.4%; for expression level (intensity of immunostained fluorescence) of OC2 as compared to the Control (NUC) group, on average: 0.15 nM BMP4 or 500 nM Cyclopamine-KAAD from day 22
Text: Here, the proportion of the number of OC2-positive cells contained in the neural retinal tissue can be determined by those of ordinary skill in the art by performing conventionally possible immunostaining and the like by using an anti OC2 antibody, DAPI and the like, measuring the number of OC2-positive cells, the number of DAPI-positive cells and the like, and identifying the ratio thereof contained in a neural retinal tissue. The expression level of OC2 protein can be determined by those of ordinary skill in the art by performing conventionally possible immunostaining and the like by using an anti OC2 antibody, DAPI and the like, and analyzing the region stained by an anti OC2 antibody by using image analysis software such as Image J and the like to identify the signal intensity of OC2-positive cells. Alternatively, the proportion of the number of OC2-positive cells contained in a neural retinal tissue and/or the OC2 protein expression level of OC2-positive cell may be identified by analysis using conventional flow cytometry using an antibody against OC2 protein.
A cell aggregate containing a retinal tissue was prepared by the method described in “Kuwahara et al. Nat Commun 2015, 19(6), 6286-” after modification in part. That is, the aforementioned cultured ES cells were individually dispersed using TrypLE Express (Invitrogen), and the individually dispersed human ES cells were suspended in 100 μL of a serum-free medium in a cell non-adhesive 96 well plate (SUMILON spheroid plate, SUMITOMO BAKELITE CO., LTD.) at 9×10^3 cells per well to allow rapid formation of aggregates, after which they were cultured at 37° C., 5% CO2. As the serum-free medium therefor, a serum-free medium obtained by adding 10% KSR, 450 μM 1-monothioglycerol, 1× Chemically defined lipid concentrate, 5 mg/mL BSA, 20 μM Y27632 to a 1:1 mixture of F-12 medium and IMDM medium was used. At 6 days after the start of suspension culture, BMP4 at a final concentration of 1.5 nM was added and suspension culture was continued. A half amount of the culture medium in the well was exchanged with the above-mentioned medium not supplemented with a BMP signal transduction pathway agonist every 3 or 4 days. A cell aggregate containing a retinal tissue at day 18 from the start of suspension culture was cultured in suspension in a serum-free medium (DMEM/F12 medium supplemented with 1% N2 supplement) containing 3 μM CHIR99021 and 5 μM SU5402 for 4 days, namely, up to day 22 from the start of suspension culture. Thereafter, suspension culture of the cell aggregate containing the retinal tissue was continued until it was appropriately used for analysis and the like. As the culture medium during this period, serum-containing media shown in the following to [3] were used and the cell aggregate was cultured under 5% CO2 conditions.
[1] day 22 to day 38 from the start of suspension culture; DMEM/F12 medium supplemented with 10% fetal calf serum, 1% N2 supplement, and 100 μM taurine. day 38 to day 60 from the start of suspension culture; a 1:3 mixed medium of DMEM/F12 medium supplemented with 10% fetal calf serum, 1% N2 supplement, and 100 μM taurine, and Neurobasal medium supplemented with 10% fetal calf serum, 2% B27 supplement, and 100 μM taurine. after day 60 from the start of suspension culture; Neurobasal medium supplemented with 10% fetal calf serum, 2% B27 supplement, and 100 μM taurine.
[1] Control group (FIG. 2a, f, k, p); according to the method described in Example 1, culture was performed up to day 70 or day 75 from the start of suspension culture and without addition. [2]+BMP group (FIG. 2b, g, 1, q); 0.15 nM BMP4 was added from day 22 from the start of suspension culture to completion of suspension culture, and cultured up to day 70 or day 75 from the start of suspension culture. […]

ALDH1A3 = test: Immunostaining for ALDH1A3 (ventral marker) of retinal tissue; assay type: cell-based, human; settings: day 75, 0.15 nM BMP4, 100 nM LDN193189, 100 nM SAG from day 22
Experimental: as §1
The retinal tissues produced by the method described in Example 2 were fixed with 4% para-formaldehyde, cryosections were prepared, and immunostaining for GFP (fluorescence of GFP variant incorporated in CRX gene locus can be identified. That is, cells similar to CRX-positive cell can be identified), ALDH1A3, or DAPI staining for staining the nucleus was performed. The retinal tissue used was one on day 75 from the start of suspension culture similar to Example 2. As a result, an ALDH1A3-positive region considered to be a ventral region in the Control (NUC) group was found in the retinal tissue, and in such region, particularly GFP-positive cells, i.e., CRX::Venus-positive cells expressing CRX, were less. In +BMP4 group, overall expression of ALDH1A3 was suppressed as compared to the Control (NUC) group, and CRX::Venus-positive cells increased along therewith.

Row | Compound | expression level of the ALDH1A3 gene versus Control (NUC) group (ALDH1A3 gene) | number of OTX2-positive cells versus Control (NUC) group [1] | OC2-positive cells [1] | expression level (intensity of immunostained fluorescence) of OC2 as compared to the Control (NUC) group, on average [1] | ALDH1A3 expression / ALDH1A3-positive region versus Control (NUC) group (ALDH1A3)
1 | BMP4: BMP protein; BMP signal transduction pathway agonist used as dorsalization signal transmitter | suppressed | higher | about 16.0% | about 36% | suppressed
2 | CNC1CCC(N(Cc2cccc(-c3ccncc3)c2)C(=O)c2sc3ccccc3c2Cl)CC1 (stereo not shown) [SAG] | promoted | lower | ~27.3% | – | increased
3 | c1ccc2c(-c3cnn4cc(-c5ccc(N6CCNCC6)cc5)cnc34)ccnc2c1 [LDN193189, 4-[6-(4-piperazin-1-ylphenyl)pyrazolo[1,5-a]pyrimidin-3-yl]quinoline] | promoted | lower | ~35.1% | – | increased
4 | CC1=C2C[C@H]3[C@@H](CC=C4CC(=O)CC[C@@]43C)[C@@H]2CC[C@]12O[C@@H]1C[C@H](C)CN(CCNC(=O)CCCCCNC(=O)CCc3ccccc3)[C@H]1[C@H]2C [Cyclopamine-KAAD] | – | higher | ~16.7% | about 64% | –
